According to ChEMBL document CHEMBL5329192, “Synthesis, biological activities, and future perspectives of steroidal monocyclic pyridines” (RSC Med Chem, 2023):

How the values were obtained:
Rattus norvegicus [1] = experiment: Anti-anabolic activity against albino rat assessed as mass gain of levator ani-muscle at 0.1 mg/kg, sc administered for 7 days; format: functional; conditions: time 7 day
[2] = Acute toxicity in ip dosed albino rat administered twice daily for 14 days; format: organism-based; conditions: in vivo, time 14 day
Rattus norvegicus [3] = species on record: Rattus norvegicus; experiment: Ratio of anti-anabolic activity against albino rat assessed as reduction in mass of levator ani-muscle to anti-androgenic activity against albino rat assessed as mass gain of prostate gland; format: functional
Rattus norvegicus [4] = experiment: Anti-androgen activity against albino rat assessed as mass gain of prostate gland at 0.1 mg/kg, sc administered for 7 days; format: functional; conditions: time 7 day
EC9706 = experiment: Antiproliferative activity against human EC9706 assessed as reduction in cell proliferation incubated for 72 hrs by MTT assay; format: functional, cell-based; conditions: EC9706, 72 h
ECa-109 cell line = experiment: Antiproliferative activity against human EC109 cells assessed as reduction in cell proliferation incubated for 72 hrs by MTT assay; format: functional, cell-based; conditions: ECa-109, 72 h
MGC-803 = experiment: Antiproliferative activity against human MGC-803 cells assessed as cell growth inhibition measured after 48 hrs by MTT assay; format: functional, cell-based; conditions: MGC-803, 48 h
[5] = Antiproliferative activity against human […] cells assessed as reduction in cell viability by MTT assay; format: functional, cell-based
HeLa = experiment: Antiproliferative activity against human HeLa cells assessed as reduction in cell viability by MTT assay; format: functional, cell-based
[6] = tested on: Respiratory syncytial virus; experiment: Antiviral activity against Respiratory syncytial virus infected in human HEp-2 cells assessed as inhibition of virus-induced cytopathic effect measured after 6 days by CellTiter-Glo assay; format: functional, organism-based; conditions: HEp-2, 144 h
[7] = Cytotoxicity against human HEp-2 cells assessed as reduction in cell viability incubated for 48 hrs by MTT assay; format: toxicity, cell-based
[8] = Selectivity index, ratio of CC50 for cytotoxicity against human HEp-2 cells to EC50 for antiviral activity against Respiratory syncytial virus infected in human HEp-2 cells; format: toxicity, cell-based; conditions: read-out: Ratio CC50/EC50
[9] = Cytotoxicity against human RWPE-1 cells assessed as reduction in cell viability incubated for 48 hrs by SRB assay; format: toxicity, cell-based
PC-3 = experiment: Cytotoxicity against human PC-3 cells assessed as reduction in cell viability incubated for 48 hrs by SRB assay; format: toxicity, cell-based; conditions: PC-3, 48 h

## C[C@]12CC[C@H](O)C[C@@H]1CC[C@@H]1[C@@H]2CC[C@]2(C)c3c(c(-c4ccc(Cl)cc4)[nH]c(=O)c3C#N)C[C@@H]12
Rattus norvegicus [1]
  Activity: 0.314 g
[2]
  LD50 at 336 h: 4920 mg/kg
Rattus norvegicus [3]
  Ratio: 1.34
Rattus norvegicus [4]
  Activity: 0.234 g

## CCOC(=O)c1cc2c(nc1C)[C@@]1(C)CC[C@H]3[C@@H](CC=C4C[C@@H](OC(C)=O)CC[C@@]43C)[C@@H]1C2
EC9706
  IC50: 34.7 µM
ECa-109 cell line
  EC50: 16.1 µM
MGC-803
  IC50: 12.2 µM

## CCOC(=O)c1cc2c(cn1)C[C@H]1[C@@H]3CC=C4C[C@@H](OC(C)=O)CC[C@]4(C)[C@H]3CC[C@]21C
[5]
  IC50: ≥ 100 µM
HeLa
  IC50: ≥ 100 µM

## CC(=O)O[C@H]1CC[C@@]2(C)C(=CC[C@H]3[C@@H]4CC[C@H](c5cc(-c6ccccc6Cl)c(C#N)c(N)n5)[C@@]4(C)CC[C@@H]32)C1
[6]
  EC50: 14.1 µM
[7]
  CC50 at 48 h: 303 µM
[8]
  selectivity ratio: 21.4

## CC(=O)O[C@H]1CC[C@@]2(C)C(=CC[C@@H]3[C@@H]2CC[C@]2(C)c4cc(-c5ccc(F)cc5)ncc4C[C@@H]32)C1
[5]
  IC50: ≥ 100 µM
HeLa
  IC50: ≥ 100 µM

## COC(=O)c1cc2c(nc1C)[C@@]1(C)CC[C@H]3[C@@H](CC=C4C[C@@H](OC(C)=O)CC[C@@]43C)[C@@H]1C2
EC9706
  IC50: 26.5 µM
ECa-109 cell line
  EC50: 17.1 µM
MGC-803
  IC50: 16.7 µM

## C[C@]12CC[C@H](O)C[C@@H]1CC[C@@H]1[C@@H]2CC[C@]2(C)c3c(C#N)c(S)nc(-c4ccc(Cl)cc4)c3C[C@@H]12
Rattus norvegicus [1]
  Activity: 0.48 g
[2]
  LD50 at 336 h: 4910 mg/kg
Rattus norvegicus [3]
  Ratio: 1.39
Rattus norvegicus [4]
  Activity: 0.345 g

## CCOC(=O)c1cc2c(nc1C(=O)OCC)[C@@]1(C)CC[C@H]3[C@@H](CC=C4C[C@@H](O)CC[C@@]43C)[C@@H]1C2
[9]
  IC50 at 48 h: 501 µM
PC-3
  IC50: 95.4 µM

## NC(=O)c1ncn([C@@H]2O[C@H](CO)[C@@H](O)[C@H]2O)n1 [RIBAVIRIN]
[6]
  EC50: 20.1 µM
[7]
  CC50 at 48 h: 653 µM
[8]
  selectivity ratio: 32.5

## CC(=O)O[C@H]1CC[C@@]2(C)C(=CC[C@H]3[C@@H]4CC[C@H](c5cc(-c6ccnc(Br)c6)c(C#N)c(N)n5)[C@@]4(C)CC[C@@H]32)C1
[6]
  EC50: 3.13 µM
[7]
  CC50 at 48 h: 539 µM
[8]
  selectivity ratio: 172

## C[C@]12CCC(=O)C[C@@H]1CC[C@@H]1[C@@H]2CC[C@]2(C)[C@@H](O)CC[C@@H]12 [STANOLONE]
Rattus norvegicus [1]
  Activity: 0.18 g
[2]
  LD50 at 336 h: 3410 mg/kg
Rattus norvegicus [4]
  Activity: 0.2 g

## CC(=O)O[C@H]1CC[C@@]2(C)C(=CC[C@@H]3[C@@H]2CC[C@]2(C)c4nc(C)c(C(C)=O)cc4C[C@@H]32)C1
EC9706
  IC50: 30.6 µM
ECa-109 cell line
  EC50: 14.3 µM
MGC-803
  IC50: 10.3 µM

## CCOC1(OCC)NC(c2ccc(F)cc2)=C2C[C@H]3[C@@H]4CC[C@H]5C[C@@H](O)CC[C@]5(C)[C@H]4CC[C@]3(C)C2=C1C#N
Rattus norvegicus [1]
  Activity: 0.622 g
[2]
  LD50 at 336 h: 4900 mg/kg
Rattus norvegicus [3]
  Ratio: 1.44
Rattus norvegicus [4]
  Activity: 0.432 g

## CCCc1cc2c(cn1)C[C@H]1[C@@H]3CC=C4C[C@@H](OC(C)=O)CC[C@]4(C)[C@H]3CC[C@]21C
[5]
  IC50: ≥ 100 µM
HeLa
  IC50: ≥ 100 µM

## CCOc1nc(-c2ccccc2)c2c(c1C#N)[C@@]1(C)CC[C@H]3[C@@H](CC[C@H]4C[C@@H](O)CC[C@@]43C)[C@@H]1C2
Rattus norvegicus [1]
  Activity: 0.494 g
[2]
  LD50 at 336 h: 4890 mg/kg
Rattus norvegicus [3]
  Ratio: 1.54
Rattus norvegicus [4]
  Activity: 0.321 g
